Results as given in paper PMC12305662, “Fragment-Based Development of Small Molecule Inhibitors Targeting Mycobacterium tuberculosis Cholesterol Metabolism” (Journal of Medicinal Chemistry, 2025).

Legend:
CYP125 = CYP125 (Mycobacterium tuberculosis, UniProt P9WPP1); assay type: binding; conditions: fragment 1 mM, P450 4-6 µM; Soret shift relative to DMSO (393 nm)
CYP142 = CYP142 (Mycobacterium tuberculosis, UniProt P9WPL5); conditions: fragment 1 mM, P450 4-6 µM; relative to DMSO (418.5 nm)
CYP124 = CYP124 (Mycobacterium tuberculosis, UniProt P9WPP3); conditions: fragment 1 mM, P450 4-6 µM; relative to DMSO (419 nm)
CYP124, sequence (P9WPP3 whole entry, the tested form may be a part): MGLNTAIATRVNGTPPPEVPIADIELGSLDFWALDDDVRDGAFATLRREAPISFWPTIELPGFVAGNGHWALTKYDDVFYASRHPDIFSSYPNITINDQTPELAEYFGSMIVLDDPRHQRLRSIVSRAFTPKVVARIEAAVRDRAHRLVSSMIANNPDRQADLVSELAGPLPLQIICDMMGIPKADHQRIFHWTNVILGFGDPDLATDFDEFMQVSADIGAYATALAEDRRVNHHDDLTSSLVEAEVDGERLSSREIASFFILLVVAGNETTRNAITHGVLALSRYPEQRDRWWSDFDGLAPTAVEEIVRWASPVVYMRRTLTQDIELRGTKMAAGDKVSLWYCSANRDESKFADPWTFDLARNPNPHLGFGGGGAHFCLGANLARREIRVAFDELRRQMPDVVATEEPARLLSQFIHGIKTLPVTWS

CYP121 = CYP121 (Mycobacterium tuberculosis, UniProt P9WPP7); conditions: fragment 1 mM, P450 4-6 µM; relative to DMSO (417 nm)
CYP121, sequence (P9WPP7 whole entry, the tested form may be a part): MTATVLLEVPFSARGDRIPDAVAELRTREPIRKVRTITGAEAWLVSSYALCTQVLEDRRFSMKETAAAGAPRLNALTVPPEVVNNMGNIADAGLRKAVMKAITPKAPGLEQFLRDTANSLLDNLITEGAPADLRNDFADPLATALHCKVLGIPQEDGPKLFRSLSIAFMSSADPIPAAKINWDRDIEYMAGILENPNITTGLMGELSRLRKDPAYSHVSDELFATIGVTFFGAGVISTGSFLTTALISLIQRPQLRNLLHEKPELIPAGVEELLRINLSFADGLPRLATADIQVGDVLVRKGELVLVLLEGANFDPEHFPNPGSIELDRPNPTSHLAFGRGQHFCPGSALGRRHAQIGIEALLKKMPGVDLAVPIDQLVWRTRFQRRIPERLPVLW

CYP126 = CYP126 (Mycobacterium tuberculosis, UniProt P9WPN9); conditions: fragment 1 mM, P450 4-6 µM; relative to DMSO (418 nm)
CYP126, sequence (P9WPN9 whole entry, the tested form may be a part): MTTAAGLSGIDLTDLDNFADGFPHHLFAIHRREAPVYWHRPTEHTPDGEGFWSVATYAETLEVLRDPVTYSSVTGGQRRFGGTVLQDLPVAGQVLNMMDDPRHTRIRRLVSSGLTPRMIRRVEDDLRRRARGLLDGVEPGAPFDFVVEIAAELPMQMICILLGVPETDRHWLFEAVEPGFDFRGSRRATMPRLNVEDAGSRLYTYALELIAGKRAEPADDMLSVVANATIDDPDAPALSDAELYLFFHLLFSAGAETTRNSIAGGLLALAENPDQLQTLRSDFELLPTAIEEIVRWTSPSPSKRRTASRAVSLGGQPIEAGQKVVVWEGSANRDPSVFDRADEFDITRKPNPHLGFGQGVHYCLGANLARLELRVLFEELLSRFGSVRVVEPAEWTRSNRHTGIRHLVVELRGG

CYP143 = CYP143 (Mycobacterium tuberculosis, UniProt P9WPL3); conditions: fragment 1 mM, P450 4-6 µM; relative to DMSO (416 nm)
CYP143, sequence (P9WPL3 whole entry, the tested form may be a part): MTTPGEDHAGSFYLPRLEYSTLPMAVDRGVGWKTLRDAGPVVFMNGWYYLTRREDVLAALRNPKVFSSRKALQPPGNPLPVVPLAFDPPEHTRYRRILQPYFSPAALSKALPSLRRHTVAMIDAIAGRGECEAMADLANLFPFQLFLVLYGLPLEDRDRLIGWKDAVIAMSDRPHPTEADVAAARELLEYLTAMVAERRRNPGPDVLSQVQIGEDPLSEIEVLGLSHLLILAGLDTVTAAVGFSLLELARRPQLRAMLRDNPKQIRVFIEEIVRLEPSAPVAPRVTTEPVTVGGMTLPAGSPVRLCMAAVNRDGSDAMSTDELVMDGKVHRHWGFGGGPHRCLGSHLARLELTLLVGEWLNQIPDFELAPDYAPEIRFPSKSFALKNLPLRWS

CYP144 = CYP144 (Mycobacterium tuberculosis, UniProt P9WPL1); conditions: fragment 1 mM, P450 4-6 µM; relative to DMSO (421 nm)
CYP144, sequence (P9WPL1 whole entry, the tested form may be a part): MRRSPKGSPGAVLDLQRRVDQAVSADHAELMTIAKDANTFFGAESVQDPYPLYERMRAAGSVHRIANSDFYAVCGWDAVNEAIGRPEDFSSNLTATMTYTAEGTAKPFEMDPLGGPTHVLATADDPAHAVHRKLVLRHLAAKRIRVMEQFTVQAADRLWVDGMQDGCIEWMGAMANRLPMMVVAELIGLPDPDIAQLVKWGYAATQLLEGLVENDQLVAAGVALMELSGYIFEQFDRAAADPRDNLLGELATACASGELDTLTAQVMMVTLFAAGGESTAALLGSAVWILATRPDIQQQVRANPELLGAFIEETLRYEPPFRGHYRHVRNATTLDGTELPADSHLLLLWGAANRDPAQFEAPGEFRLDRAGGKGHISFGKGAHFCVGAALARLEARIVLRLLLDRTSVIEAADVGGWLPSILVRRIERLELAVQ

CYP125, sequence (P9WPP1 whole entry, the tested form may be a part): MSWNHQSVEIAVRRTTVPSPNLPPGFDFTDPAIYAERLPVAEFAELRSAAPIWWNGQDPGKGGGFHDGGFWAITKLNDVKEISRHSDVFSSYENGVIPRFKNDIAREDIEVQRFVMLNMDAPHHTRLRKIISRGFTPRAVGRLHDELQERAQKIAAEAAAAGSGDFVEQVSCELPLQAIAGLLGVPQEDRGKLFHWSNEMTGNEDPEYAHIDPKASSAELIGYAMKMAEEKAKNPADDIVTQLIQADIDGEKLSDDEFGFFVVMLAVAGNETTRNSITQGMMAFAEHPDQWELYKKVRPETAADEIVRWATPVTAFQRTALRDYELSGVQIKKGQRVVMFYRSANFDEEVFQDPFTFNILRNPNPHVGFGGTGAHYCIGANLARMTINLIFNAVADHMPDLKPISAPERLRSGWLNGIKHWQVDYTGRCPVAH
CYP142, sequence (P9WPL5 whole entry, the tested form may be a part): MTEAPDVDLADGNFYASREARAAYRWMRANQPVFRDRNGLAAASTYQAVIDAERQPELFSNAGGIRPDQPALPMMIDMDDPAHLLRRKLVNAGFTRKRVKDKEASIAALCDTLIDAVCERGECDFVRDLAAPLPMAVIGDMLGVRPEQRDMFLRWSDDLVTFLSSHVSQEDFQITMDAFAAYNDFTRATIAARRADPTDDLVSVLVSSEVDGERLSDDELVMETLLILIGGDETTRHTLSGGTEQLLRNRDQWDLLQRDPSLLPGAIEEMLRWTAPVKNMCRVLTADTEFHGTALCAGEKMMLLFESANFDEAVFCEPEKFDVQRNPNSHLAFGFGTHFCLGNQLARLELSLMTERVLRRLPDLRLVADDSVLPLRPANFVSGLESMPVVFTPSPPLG

Compound | Δλmax (nm) CYP125, fragment screen (CYP125) [nm] | Δλmax (nm) CYP142, fragment screen (CYP142) [nm] | Δλmax (nm) CYP124, fragment screen (CYP124) [nm] | Δλmax (nm) CYP121, fragment screen (CYP121) [nm] | Δλmax (nm) CYP126, fragment screen (CYP126) [nm] | Δλmax (nm) CYP143, fragment screen (CYP143) [nm] | Δλmax (nm) CYP144, fragment screen (CYP144) [nm]
Oc1ccccn1 [compound 44] | 0 | 0 | 0 | 0 | 0 | -0.5 | 0
CC(C)c1cc(C(=O)O)[nH]n1 [compound 46] | 0 | 0 | 0 | 0 | 0 | -0.5 | 0
Nc1ccncc1 [compound 47] | 0 | 1.5 | 0 | 0 | 0 | 0 | 0
Nc1ccc(Oc2ccccc2)nc1 [compound 48] | 0 | 1.5 | -1 | 1 | 2 | 0.5 | 0
Nc1ccc(-n2cccn2)cc1 [compound 49] | 0 | 0 | 0 | 0 | 2 | 1 | 0
COc1ncccc1N [compound 50] | 0 | 0 | 0 | 0 | 0 | 2.5 | 0
O=C(O)c1ccnn1-c1ccccc1 [compound 51] | 0 | 0 | 0 | -1 | 0 | 0.5 | 0
CNCc1ccc(-c2ccncc2)cc1 [compound 52] | 28.5 | 1.5 | 2 | -1 | 0 | 4 | 0
O=C(O)c1ccc(-c2cccnc2)cc1 [compound 53] | 0 | 0 | 0 | 0 | 0 | 1 | 0
O=C(O)c1ccc(-n2cccn2)cc1 [compound 54] | 0 | 0 | 0 | 0 | -1 | -0.5 | 0
Clc1nccc2ccccc12 [compound 56] | 0 | 0 | 0 | -2 | 0 | -0.5 | 0
Clc1ncccc1Br [compound 57] | 0 | 0 | 0 | -1 | 0 | 0.5 | 0
O=c1ccc(Br)c[nH]1 [compound 58] | 0 | 0 | 0 | 0 | -1 | 0.5 | 0
O=C(O)c1cncc(F)c1 [compound 60] | 0 | 0 | 0 | 0 | 0 | 1 | 0
